A word on the AC50: it is the midpoint of the concentration-response curve, whichever way the signal moves. Low values mean greater potency, high ones weaker potency.

In one experiment the target is T1, Adenosine receptor A3 (Homo sapiens, UniProt P0DMS8).
T1 sequence (P0DMS8 whole entry): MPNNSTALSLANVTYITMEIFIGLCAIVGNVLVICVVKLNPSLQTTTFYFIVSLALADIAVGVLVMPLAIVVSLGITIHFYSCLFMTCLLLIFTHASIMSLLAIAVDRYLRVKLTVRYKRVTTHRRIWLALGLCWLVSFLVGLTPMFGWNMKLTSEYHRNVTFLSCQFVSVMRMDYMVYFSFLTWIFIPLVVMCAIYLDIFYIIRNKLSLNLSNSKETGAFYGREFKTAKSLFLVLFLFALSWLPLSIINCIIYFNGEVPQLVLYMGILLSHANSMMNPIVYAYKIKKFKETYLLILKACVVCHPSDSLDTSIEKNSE

The target of another experiment is Vasopressin V1a receptor (Homo sapiens, UniProt P37288).
The target in experiment [1] is Delta-type opioid receptor (Homo sapiens, UniProt P41143).
The target of experiment [2] is T2, 5-hydroxytryptamine receptor 3A (Homo sapiens, UniProt P46098).
T2 sequence (P46098 whole entry): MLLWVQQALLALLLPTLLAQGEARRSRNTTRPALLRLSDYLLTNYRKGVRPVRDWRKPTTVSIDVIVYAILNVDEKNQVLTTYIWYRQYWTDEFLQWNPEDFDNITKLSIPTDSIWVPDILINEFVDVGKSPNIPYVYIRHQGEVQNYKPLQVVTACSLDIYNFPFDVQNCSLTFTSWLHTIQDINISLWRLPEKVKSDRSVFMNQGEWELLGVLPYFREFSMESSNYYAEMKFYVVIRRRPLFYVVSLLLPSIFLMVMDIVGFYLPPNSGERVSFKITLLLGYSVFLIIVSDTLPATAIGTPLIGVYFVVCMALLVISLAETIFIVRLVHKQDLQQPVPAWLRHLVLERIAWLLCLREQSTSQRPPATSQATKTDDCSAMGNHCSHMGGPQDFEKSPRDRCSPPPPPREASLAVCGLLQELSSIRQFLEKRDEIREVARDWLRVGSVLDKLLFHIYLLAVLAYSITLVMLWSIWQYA
The experiment is classed as functional.

Experiment [3] addresses T3, Muscarinic acetylcholine receptor M2 (Homo sapiens, UniProt P08172).
T3 sequence (P08172 whole entry): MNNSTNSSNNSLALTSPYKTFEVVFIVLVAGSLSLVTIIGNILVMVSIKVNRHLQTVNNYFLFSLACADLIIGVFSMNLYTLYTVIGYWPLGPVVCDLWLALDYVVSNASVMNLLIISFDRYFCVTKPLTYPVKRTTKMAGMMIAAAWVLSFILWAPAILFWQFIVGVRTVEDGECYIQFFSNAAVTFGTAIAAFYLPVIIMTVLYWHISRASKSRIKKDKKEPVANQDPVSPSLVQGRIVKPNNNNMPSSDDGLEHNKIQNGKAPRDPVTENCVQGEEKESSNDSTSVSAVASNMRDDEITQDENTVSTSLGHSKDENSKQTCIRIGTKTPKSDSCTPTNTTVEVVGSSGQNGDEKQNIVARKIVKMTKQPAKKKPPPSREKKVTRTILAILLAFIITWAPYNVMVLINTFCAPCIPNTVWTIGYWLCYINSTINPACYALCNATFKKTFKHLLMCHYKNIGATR
The experiment is classed as functional, cell-based.

The target of experiment [4] is 3',5'-cyclic-AMP phosphodiesterase 4D (Homo sapiens, UniProt Q08499). The experiment is classed as functional.
Experiment [5] concerns the target T4, Type-1 angiotensin II receptor (Homo sapiens, UniProt P30556).
T4 sequence (P30556 whole entry): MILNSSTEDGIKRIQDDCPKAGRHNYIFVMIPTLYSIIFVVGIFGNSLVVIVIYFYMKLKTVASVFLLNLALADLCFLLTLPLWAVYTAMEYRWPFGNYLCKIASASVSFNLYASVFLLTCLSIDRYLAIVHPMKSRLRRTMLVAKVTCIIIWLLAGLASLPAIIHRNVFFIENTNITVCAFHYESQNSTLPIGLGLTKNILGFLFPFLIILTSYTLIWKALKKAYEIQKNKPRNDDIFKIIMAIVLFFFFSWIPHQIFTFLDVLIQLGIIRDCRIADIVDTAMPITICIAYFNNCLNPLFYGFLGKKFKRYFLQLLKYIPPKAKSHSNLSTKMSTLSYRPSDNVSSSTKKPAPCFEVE

Experiment [6] has as its target Gamma-aminobutyric acid receptor subunit alpha-1 (Rattus norvegicus, UniProt P62813). The experiment is classed as functional.
In experiment [7] the target is Growth hormone secretagogue receptor type 1 (Homo sapiens, UniProt Q92847).
Experiment [8] has as its target T5, Amine oxidase [flavin-containing] A (Homo sapiens, UniProt P21397).
T5 sequence (P21397 whole entry): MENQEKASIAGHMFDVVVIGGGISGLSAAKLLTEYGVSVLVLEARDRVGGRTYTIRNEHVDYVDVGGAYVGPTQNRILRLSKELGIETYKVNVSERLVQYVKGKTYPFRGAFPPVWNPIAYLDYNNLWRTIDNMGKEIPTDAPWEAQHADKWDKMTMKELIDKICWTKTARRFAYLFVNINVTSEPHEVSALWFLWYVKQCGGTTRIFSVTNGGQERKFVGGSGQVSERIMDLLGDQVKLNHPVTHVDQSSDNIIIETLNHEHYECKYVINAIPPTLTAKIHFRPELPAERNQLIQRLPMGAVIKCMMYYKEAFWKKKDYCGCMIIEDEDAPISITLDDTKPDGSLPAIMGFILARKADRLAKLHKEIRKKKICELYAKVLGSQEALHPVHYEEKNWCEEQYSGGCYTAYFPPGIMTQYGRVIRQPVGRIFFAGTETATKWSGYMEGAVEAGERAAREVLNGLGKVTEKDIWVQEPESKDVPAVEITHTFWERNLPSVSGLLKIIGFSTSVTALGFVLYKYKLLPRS
The experiment is classed as functional.

For experiment [9], the target named is T6, 5-hydroxytryptamine receptor 1A (Homo sapiens, UniProt P08908).
T6 sequence (P08908 whole entry): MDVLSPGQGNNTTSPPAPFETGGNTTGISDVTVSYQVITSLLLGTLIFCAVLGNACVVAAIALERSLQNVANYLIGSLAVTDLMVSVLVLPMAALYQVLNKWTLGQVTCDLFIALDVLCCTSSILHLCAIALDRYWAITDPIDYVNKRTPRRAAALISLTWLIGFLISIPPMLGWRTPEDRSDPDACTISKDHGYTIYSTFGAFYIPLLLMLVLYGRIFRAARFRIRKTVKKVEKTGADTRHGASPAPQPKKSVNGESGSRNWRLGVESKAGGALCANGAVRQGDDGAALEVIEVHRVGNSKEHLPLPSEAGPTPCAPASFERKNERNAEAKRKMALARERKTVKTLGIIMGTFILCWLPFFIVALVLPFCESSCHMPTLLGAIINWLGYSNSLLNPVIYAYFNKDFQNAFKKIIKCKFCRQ
The experiment is classed as functional, cell-based.
Also: assay procedure not described here.

Sequence of Growth hormone secretagogue receptor type 1 (Q92847 whole entry): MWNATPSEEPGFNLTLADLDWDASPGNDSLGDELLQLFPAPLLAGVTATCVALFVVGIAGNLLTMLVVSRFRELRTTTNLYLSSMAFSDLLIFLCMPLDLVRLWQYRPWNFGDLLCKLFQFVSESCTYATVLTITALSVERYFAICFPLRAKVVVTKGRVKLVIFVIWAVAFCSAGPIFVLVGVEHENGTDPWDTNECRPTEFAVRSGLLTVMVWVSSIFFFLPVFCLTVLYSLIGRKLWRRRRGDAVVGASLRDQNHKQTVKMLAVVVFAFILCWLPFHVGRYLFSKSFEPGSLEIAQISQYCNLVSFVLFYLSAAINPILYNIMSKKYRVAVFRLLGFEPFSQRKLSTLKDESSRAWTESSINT
Sequence of 3',5'-cyclic-AMP phosphodiesterase 4D (Q08499 whole entry): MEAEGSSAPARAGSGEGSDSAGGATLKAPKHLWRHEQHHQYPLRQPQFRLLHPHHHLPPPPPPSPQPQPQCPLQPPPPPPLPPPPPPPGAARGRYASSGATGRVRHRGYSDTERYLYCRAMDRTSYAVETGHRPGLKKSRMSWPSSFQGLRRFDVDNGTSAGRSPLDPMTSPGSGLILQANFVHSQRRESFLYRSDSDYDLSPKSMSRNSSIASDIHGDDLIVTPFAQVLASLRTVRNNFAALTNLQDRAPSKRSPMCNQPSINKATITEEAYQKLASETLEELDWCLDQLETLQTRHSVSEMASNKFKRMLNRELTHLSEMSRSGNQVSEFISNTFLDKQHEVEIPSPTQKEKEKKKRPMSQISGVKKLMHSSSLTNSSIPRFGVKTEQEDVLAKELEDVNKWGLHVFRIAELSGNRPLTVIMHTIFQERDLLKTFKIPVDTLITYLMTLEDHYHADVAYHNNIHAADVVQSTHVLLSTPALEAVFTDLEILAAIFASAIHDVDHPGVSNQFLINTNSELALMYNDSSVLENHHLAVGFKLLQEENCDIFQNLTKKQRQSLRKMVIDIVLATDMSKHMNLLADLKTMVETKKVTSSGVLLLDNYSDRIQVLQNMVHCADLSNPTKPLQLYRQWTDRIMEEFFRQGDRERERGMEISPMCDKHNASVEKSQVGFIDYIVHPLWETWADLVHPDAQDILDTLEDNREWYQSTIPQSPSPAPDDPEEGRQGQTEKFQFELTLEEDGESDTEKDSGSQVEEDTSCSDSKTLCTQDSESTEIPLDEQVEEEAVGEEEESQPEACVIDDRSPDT
Sequence of Delta-type opioid receptor (P41143 whole entry): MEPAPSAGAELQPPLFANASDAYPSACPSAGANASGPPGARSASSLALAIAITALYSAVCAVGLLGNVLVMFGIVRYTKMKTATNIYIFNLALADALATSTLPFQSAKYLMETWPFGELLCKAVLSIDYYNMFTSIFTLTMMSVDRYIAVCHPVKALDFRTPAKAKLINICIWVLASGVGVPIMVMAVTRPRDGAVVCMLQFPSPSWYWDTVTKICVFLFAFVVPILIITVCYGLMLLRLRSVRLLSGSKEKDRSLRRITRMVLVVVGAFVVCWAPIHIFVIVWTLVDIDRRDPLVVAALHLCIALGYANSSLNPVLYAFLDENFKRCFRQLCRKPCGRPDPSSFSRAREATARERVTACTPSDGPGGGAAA
Sequence of Gamma-aminobutyric acid receptor subunit alpha-1 (P62813 whole entry): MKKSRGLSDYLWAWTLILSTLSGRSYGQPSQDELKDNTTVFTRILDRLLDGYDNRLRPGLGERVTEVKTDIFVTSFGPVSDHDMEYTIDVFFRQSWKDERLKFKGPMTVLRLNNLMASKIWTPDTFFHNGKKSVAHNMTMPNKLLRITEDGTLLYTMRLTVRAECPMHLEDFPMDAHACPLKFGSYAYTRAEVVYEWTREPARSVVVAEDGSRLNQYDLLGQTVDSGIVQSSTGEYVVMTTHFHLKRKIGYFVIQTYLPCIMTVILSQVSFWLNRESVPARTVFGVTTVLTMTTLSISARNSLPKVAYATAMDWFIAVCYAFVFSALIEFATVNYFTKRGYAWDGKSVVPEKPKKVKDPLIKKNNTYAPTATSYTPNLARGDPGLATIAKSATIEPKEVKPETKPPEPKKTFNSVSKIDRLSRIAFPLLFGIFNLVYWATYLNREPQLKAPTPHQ
Sequence of Vasopressin V1a receptor (P37288 whole entry): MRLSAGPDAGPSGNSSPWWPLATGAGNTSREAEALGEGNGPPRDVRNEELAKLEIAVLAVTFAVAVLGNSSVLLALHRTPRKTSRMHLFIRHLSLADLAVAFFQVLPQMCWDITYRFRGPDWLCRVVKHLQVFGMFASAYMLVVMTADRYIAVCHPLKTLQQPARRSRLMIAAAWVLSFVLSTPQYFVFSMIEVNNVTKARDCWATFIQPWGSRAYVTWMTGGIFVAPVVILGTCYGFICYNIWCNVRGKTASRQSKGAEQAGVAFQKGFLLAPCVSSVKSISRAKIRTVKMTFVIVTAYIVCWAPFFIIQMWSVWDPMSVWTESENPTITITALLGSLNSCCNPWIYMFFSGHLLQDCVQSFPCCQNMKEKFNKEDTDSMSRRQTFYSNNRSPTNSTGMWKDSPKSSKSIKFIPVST

Turning to `COCCCN1CCC(NC(=O)c2cc(Cl)c(N)c3c2OCC3)CC1` [PRUCALOPRIDE], the half-maximal activity concentration (AC50) is > 30 µM at Adenosine receptor A3; > 30 µM at Vasopressin V1a receptor; > 30 µM in [1]; 28 µM in experiment [2]; > 30 µM in experiment [3]; > 30 µM in experiment [4]. The AC50 in [5], in experiment [6], in experiment [7], in experiment [8] and in experiment [9] was > 30 µM in each case.
Turning to `C[C@]12CCC(=O)C=C1CC[C@@H]1[C@@H]2[C@@H](O)C[C@@]2(C)[C@H]1CC[C@]2(O)C(=O)CO` [HYDROCORTISONE], the half-maximal activity concentration (AC50) was > 30 µM on Adenosine receptor A3; > 10 µM at Vasopressin V1a receptor; > 30 µM in [1]; > 30 µM in experiment [2]; > 10 µM in [3]; > 30 µM in experiment [4]. Also, the AC50 was > 30 µM in experiment [5]; > 10 µM in experiment [6]; > 30 µM in experiment [7]; > 10 µM in [8]; > 10 µM in experiment [9].
As for `COc1ccc(CC(C)(C)NC[C@H](O)c2cc(O)cc3c2OCC(=O)N3)cc1` [OLODATEROL], the AC50 is > 30 µM at Adenosine receptor A3; > 30 µM on Vasopressin V1a receptor; > 30 µM in experiment [1]; > 30 µM in [2]; 5.1 µM in experiment [3]; 21 µM in experiment [4]. The AC50 in experiment [5], in [6], in experiment [7], in experiment [8] and in [9] was > 30 µM each time.
Take `CCCCN1C[C@H](O)[C@@H](O)[C@H](O)[C@H]1CO`: the AC50 (at Adenosine receptor A3; at Vasopressin V1a receptor; in experiment [1]; in [2]; in [3]; in experiment [4]) was > 30 µM each time. Also, the AC50 in experiment [5], in [6], in experiment [7], in experiment [8] and in experiment [9] was > 30 µM throughout.
As for `Clc1ccc2nsnc2c1NC1=NCCN1` [TIZANIDINE], the AC50 on Adenosine receptor A3 was > 30 µM; at Vasopressin V1a receptor, > 10 µM; in [1], > 30 µM; in [2], > 30 µM; in experiment [3], > 30 µM; in experiment [4], > 30 µM. Further, the AC50 in experiment [5] was > 30 µM; in [6], > 10 µM; in [7], > 30 µM; in [8], > 10 µM; in [9], > 30 µM.
For `Nc1ccn([C@H]2CC[C@@H](CO)O2)c(=O)n1` [ZALCITABINE], the AC50 on Adenosine receptor A3 was > 10 µM; on Vasopressin V1a receptor, > 10 µM; in experiment [1], > 30 µM; in experiment [2], > 30 µM; in [3] it was > 10 µM; in experiment [4], > 30 µM. Further, the concentration at half-maximal activity (AC50) in experiment [5], in experiment [6], in experiment [7], in experiment [8] and in experiment [9] was > 10 µM each time.
For `NS(=O)(=O)Cc1noc2ccccc12` [ZONISAMIDE], the half-maximal activity concentration (AC50) on Adenosine receptor A3 is > 10 µM; on Vasopressin V1a receptor, > 10 µM; in experiment [1] it was > 30 µM; in experiment [2] it was > 30 µM; in experiment [3], > 10 µM; in [4] it was > 30 µM. Besides, the AC50 in experiment [5], in [6], in [7], in experiment [8] and in [9] was > 10 µM throughout.
Regarding `CC(=O)Nc1ccc(O)cc1` [ACETAMINOPHEN], the concentration at half-maximal activity (AC50) (at Adenosine receptor A3; at Vasopressin V1a receptor; in experiment [1]; in [2]; in [3]; in experiment [4]) was > 30 µM in each case. The AC50 in experiment [5], in [6], in experiment [7], in experiment [8] and in experiment [9] was > 30 µM in each case.
Take `CN1C(=O)CCS(=O)(=O)C1c1ccc(Cl)cc1` (stereo unspecified) [CHLORMEZANONE]: the AC50 was > 10 µM on Adenosine receptor A3; > 10 µM on Vasopressin V1a receptor; > 30 µM in [1]; > 30 µM in experiment [2]; > 10 µM in experiment [3]; > 30 µM in experiment [4]. Also, the AC50 in experiment [5] is > 10 µM; in experiment [6], > 10 µM; in experiment [7], > 10 µM; in [8] it was > 30 µM; in experiment [9], > 10 µM.
For the compound `C[C@H]1CNCCc2ccc(Cl)cc21` [LORCASERIN], the AC50 (at Adenosine receptor A3; at Vasopressin V1a receptor; in [1]; in [2]; in experiment [3]; in experiment [4]) was > 30 µM in each case. In addition, the AC50 in [5], in experiment [6], in experiment [7], in [8] and in experiment [9] was > 30 µM in each case.
Consider `Cc1cccc(Nc2ccccc2C(=O)O)c1C` [MEFENAMIC ACID], for which the AC50 on Adenosine receptor A3 was > 10 µM; at Vasopressin V1a receptor, > 10 µM; in experiment [1] it was > 30 µM; in [2] it was > 30 µM; in [3] it was > 10 µM; in experiment [4] it was > 30 µM. Moreover, the AC50 in experiment [5], in experiment [6], in experiment [7], in experiment [8] and in [9] was > 10 µM throughout.

The values above are taken from ChEMBL document CHEMBL5291721, “A preclinical secondary pharmacology resource illuminates target-adverse drug reaction associations of marketed drugs” (Nat Commun, 2023).
